The nature of this series: Viscosity of aqueous solution, E-type viscometer. It counts as physicochemical. The following applies: 37° C. The method, then: Tables 1 and 2 shown the constituent materials of the respective layers of the orally-administered agents obtained in the respective Examples and the respective Comparative Examples and the contents thereof. […] Furthermore, the viscosity of the water absorption promoter in the Table 1 and the viscosity of the antiadhesive agent in the Table 2 denote a viscosity at 37° C. of an aqueous solution of 5 mass % of the water absorption promoter and the antiadhesive agent, respectively. Each viscosity was measured with an E-type viscometer (a product of Tokimec, Inc.).

In the case of `OC[C@@H](O)[C@@H](O)[C@H](O)[C@H](O)CO` [Man, mannitol], the “Viscosity of antiadhesive agent” value (aqueous solution of 5 mass % of the antiadhesive agent) came out at 0.87 mPa · s. Where the note is “aqueous solution of 5 mass % of the water absorption promoter”, the “Viscosity of water absorption promoter” value came to 0.87 mPa · s.
